Test results published in patent publication US8329904B2, “Azacyclic derivatives” (Hoffmann-La Roche Inc., priority 2009, dated 2012).

These compounds were tested against T1, human HSL (Homo sapiens, UniProt Q05469) (assay: Human Hormone-Sensitive Lipase (HSL) Enzyme Inhibition Assay). Details: colorimetric assay, 2,3-dimercapto-1-propanol tributyrate (DMPT) substrate, 37° C. for 20 minutes, absorbance at 405 nm; read-out: HSL hum IC50.
T1 construct: overlapping PCR to generate a full length human HSL ORF with a 3′-His6 tag; His6 (C); made in house; host or cells: High 5 insect cells (baculovirus, pFast-BAC)
T1 sequence (Q05469 1-1076): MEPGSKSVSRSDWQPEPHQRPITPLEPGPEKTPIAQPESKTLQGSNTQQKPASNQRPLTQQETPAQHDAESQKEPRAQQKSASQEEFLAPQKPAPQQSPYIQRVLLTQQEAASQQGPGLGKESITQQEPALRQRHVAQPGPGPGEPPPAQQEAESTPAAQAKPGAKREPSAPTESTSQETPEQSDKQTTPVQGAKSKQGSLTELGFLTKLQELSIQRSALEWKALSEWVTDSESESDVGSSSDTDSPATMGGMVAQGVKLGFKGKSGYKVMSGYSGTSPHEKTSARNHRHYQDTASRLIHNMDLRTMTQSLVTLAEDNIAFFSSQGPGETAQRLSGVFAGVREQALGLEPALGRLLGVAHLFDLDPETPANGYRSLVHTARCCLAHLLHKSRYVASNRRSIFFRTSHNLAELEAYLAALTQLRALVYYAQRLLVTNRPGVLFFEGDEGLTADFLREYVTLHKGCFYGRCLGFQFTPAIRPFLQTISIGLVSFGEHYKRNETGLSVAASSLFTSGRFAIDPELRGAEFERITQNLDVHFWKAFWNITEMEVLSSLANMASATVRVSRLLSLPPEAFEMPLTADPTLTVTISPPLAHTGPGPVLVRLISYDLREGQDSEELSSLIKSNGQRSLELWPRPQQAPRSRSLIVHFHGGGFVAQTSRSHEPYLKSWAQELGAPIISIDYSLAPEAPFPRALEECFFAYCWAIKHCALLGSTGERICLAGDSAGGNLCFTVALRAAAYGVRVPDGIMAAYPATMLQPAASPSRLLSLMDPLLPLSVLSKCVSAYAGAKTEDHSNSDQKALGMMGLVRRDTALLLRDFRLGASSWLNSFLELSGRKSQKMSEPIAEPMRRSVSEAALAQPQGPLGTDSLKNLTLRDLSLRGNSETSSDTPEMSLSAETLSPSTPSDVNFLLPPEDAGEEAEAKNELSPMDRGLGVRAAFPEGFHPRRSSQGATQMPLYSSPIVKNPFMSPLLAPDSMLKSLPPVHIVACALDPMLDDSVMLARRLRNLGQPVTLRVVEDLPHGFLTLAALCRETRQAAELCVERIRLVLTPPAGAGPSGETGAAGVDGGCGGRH
Format: biochemical
Summary of the method: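 Colorimetric thioester hydrolysis: compounds in DMSO series mixed with DMPT (1.5 mM) in MOPS pH 7.2 with BSA, then baculovirus-expressed His6-tagged full-length human HSL added, 37° C, 20 min. DTNB plus detergents added, 15 min room temperature, absorbance at 405 nm.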

| Structure (SMILES) | IC50 |
| --- | --- |
| CC(Oc1ccc(N2CCC3(CCN(S(=O)(=O)c4ccccc4Cl)CC3)C2=O)cc1)C(F)(F)F (centres unmarked) [Example 125, 8-(2-Chloro-benzenesulfonyl)-2-[4-(2,2,2-trifluoro-1-methyl-ethoxy)-phenyl]-2,8-diaza-spiro[4.5]decan-1-one] | 20 nM |
| CCn1ncc2cc(N3CCC4(CCN(S(=O)(=O)c5ccccc5Cl)CC4)C3=O)ccc21 [Example 126, 8-(2-Chloro-benzenesulfonyl)-2-(1-ethyl-1H-indazol-5-yl)-2,8-diaza-spiro[4.5]decan-1-one] | 30 nM |
| Cc1nc2ccc(N3CCC4(CCN(S(=O)(=O)c5ccccc5Cl)CC4)C3=O)cc2s1 [Example 127, 8-(2-Chloro-benzenesulfonyl)-2-(2-methyl-benzothiazol-6-yl)-2,8-diaza-spiro[4.5]decan-1-one] | 60 nM |
| O=C1N(c2ccc(OC3CCCC3)cc2)CCC12CCN(S(=O)(=O)c1ccccc1Cl)CC2 [Example 128, 8-(2-Chloro-benzenesulfonyl)-2-(4-cyclopentyloxy-phenyl)-2,8-diaza-spiro[4.5]decan-1-one] | 20 nM |
| O=C1N(c2ccc(OC3CCOC3)cc2)CCC12CCN(S(=O)(=O)c1ccccc1Cl)CC2 (centres unmarked) [Example 129, 8-(2-Chloro-benzenesulfonyl)-2-[4-(tetrahydro-furan-3-yloxy)-phenyl]-2,8-diaza-spiro[4.5]decan-1-one] | 40 nM |
| Cn1ncc2cc(N3CCC4(CCN(S(=O)(=O)c5ccccc5Cl)CC4)C3=O)ccc21 [Example 130, 8-(2-Chloro-benzenesulfonyl)-2-(1-methyl-1H-indazol-5-yl)-2,8-diaza-spiro[4.5]decan-1-one] | 50 nM |
| Cn1cc2cc(N3CCC4(CCN(S(=O)(=O)c5ccccc5Cl)CC4)C3=O)ccc2n1 [Example 131, 8-(2-Chloro-benzenesulfonyl)-2-(2-methyl-2H-indazol-5-yl)-2,8-diaza-spiro[4.5]decan-1-one] | 570 nM |
| O=C1N(c2ccc(Oc3cccnc3)cc2)CCC12CCN(S(=O)(=O)c1ccccc1Cl)CC2 [Example 132, 8-(2-Chloro-benzenesulfonyl)-2-[4-(pyridin-3-yloxy)-phenyl]-2,8-diaza-spiro[4.5]decan-1-one] | 280 nM |
| O=C1N(c2ccc(OCC3CCCC3)cc2)CCC12CCN(S(=O)(=O)c1ccccc1Cl)CC2 [Example 133, 8-(2-Chloro-benzenesulfonyl)-2-(4-cyclopentylmethoxy-phenyl)-2,8-diaza-spiro[4.5]decan-1-one] | 600 nM |
| CCOC(=O)Cc1ccc(N2CCC3(CCN(S(=O)(=O)c4ccccc4Cl)CC3)C2=O)cc1 [Example 134, {4-[8-(2-Chloro-benzenesulfonyl)-1-oxo-2,8-diaza-spiro[4.5]dec-2-yl]-phenyl}-acetic acid ethyl ester] | 50 nM |
| N#CCc1ccc(N2CCC3(CCN(S(=O)(=O)c4ccccc4Cl)CC3)C2=O)cc1 [Example 135, {4-[8-(2-Chloro-benzenesulfonyl)-1-oxo-2,8-diaza-spiro[4.5]dec-2-yl]-phenyl}-acetonitrile] | 90 nM |
| Cc1nc(Cc2ccc(N3CCC4(CCN(S(=O)(=O)c5ccccc5Cl)CC4)C3=O)cc2)no1 [Example 136, 8-(2-Chloro-benzenesulfonyl)-2-[4-(5-methyl-[1,2,4]oxadiazol-3-ylmethyl)-phenyl]-2,8-diaza-spiro[4.5]decan-1-one] | 80 nM |
| Cc1nnc(Cc2ccc(N3CCC4(CCN(S(=O)(=O)c5ccccc5Cl)CC4)C3=O)cc2)o1 [Example 137, 8-(2-Chloro-benzenesulfonyl)-2-[4-(5-methyl-[1,3,4]oxadiazol-2-ylmethyl)-phenyl]-2,8-diaza-spiro[4.5]decan-1-one] | 220 nM |
| O=C1N(c2ccc(Cc3nnc(C(F)(F)F)o3)cc2)CCC12CCN(S(=O)(=O)c1ccccc1Cl)CC2 [Example 138, 8-(2-Chloro-benzenesulfonyl)-2-[4-(5-trifluoromethyl-[1,3,4]oxadiazol-2-ylmethyl)-phenyl]-2,8-diaza-spiro[4.5]decan-1-one] | 530 nM |
| CC(C)(C)CS(=O)(=O)N1CCC2(CCN(c3ccc(OCCC(F)(F)F)cc3)C2=O)CC1 [Example 139, 8-(Neopentylsulfonyl)-2-(4-(3,3,3-trifluoropropoxy)phenyl)-2,8-diazaspiro[4.5]decan-1-one] | 310 nM |
| CS(=O)(=O)c1ccc(N2CCC3(CCN(S(=O)(=O)c4ccccc4Cl)CC3)C2=O)cc1 [Example 140, 8-(2-Chloro-benzenesulfonyl)-2-(4-methanesulfonyl-phenyl)-2,8-diaza-spiro[4.5]decan-1-one] | 40 nM |
| O=C1N(c2ccc(CO)cc2)CCC12CCN(S(=O)(=O)c1ccccc1Cl)CC2 [Example 141, 8-(2-Chloro-benzenesulfonyl)-2-(4-hydroxymethyl-phenyl)-2,8-diaza-spiro[4.5]decan-1-one] | 360 nM |
| COCc1ccc(N2CCC3(CCN(S(=O)(=O)c4ccccc4Cl)CC3)C2=O)cc1 [Example 142, 8-(2-Chloro-benzenesulfonyl)-2-(4-methoxymethyl-phenyl)-2,8-diaza-spiro[4.5]decan-1-one] | 40 nM |
| CCc1ccc(N2CCC3(CCN(S(=O)(=O)c4ccccc4N4CCCC4=O)CC3)C2=O)cc1 [Example 143, 2-(4-Ethyl-phenyl)-8-[2-(2-oxo-pyrrolidin-1-yl)-benzenesulfonyl]-2,8-diaza-spiro[4.5]decan-1-one] | 170 nM |
| COC/C=C/c1ccc(N2CCC3(CCN(S(=O)(=O)c4ccccc4OC(F)(F)F)CC3)C2=O)cc1 [Example 144, 2-[4-((E)-3-Methoxy-propenyl)-phenyl]-8-(2-trifluoromethoxy-benzenesulfonyl)-2,8-diaza-spiro[4.5]decan-1-one] | 50 nM |
| O=C1N(c2ccc(/C=C/C3CC3)cc2)CCC12CCN(S(=O)(=O)c1ccccc1OC(F)(F)F)CC2 [Example 145, 2-[4-((E)-2-Cyclopropyl-vinyl)-phenyl]-8-(2-trifluoromethoxy-benzenesulfonyl)-2,8-diaza-spiro[4.5]decan-1-one] | 120 nM |
| COCCCc1ccc(N2CCC3(CCN(S(=O)(=O)c4ccccc4OC(F)(F)F)CC3)C2=O)cc1 [Example 146, 2-[4-(3-Methoxy-propyl)-phenyl]-8-(2-trifluoromethoxy-benzenesulfonyl)-2,8-diaza-spiro[4.5]decan-1-one] | 50 nM |
| O=C1N(c2ccc(CCC3CC3)cc2)CCC12CCN(S(=O)(=O)c1ccccc1OC(F)(F)F)CC2 [Example 147, 2-[4-(2-Cyclopropyl-ethyl)-phenyl]-8-(2-trifluoromethoxy-benzenesulfonyl)-2,8-diaza-spiro[4.5]decan-1-one] | 60 nM |
| O=C1N(c2ccc(COCC3CC3)cc2)CCC12CCN(S(=O)(=O)c1ccccc1Cl)CC2 [Example 148, 8-(2-Chloro-benzenesulfonyl)-2-(4-cyclopropylmethoxymethyl-phenyl)-2,8-diaza-spiro[4.5]decan-1-ones] | 90 nM |
| CCOCc1ccc(N2CCC3(CCN(S(=O)(=O)c4ccccc4Cl)CC3)C2=O)cc1 [Example 149, 8-(2-Chloro-benzenesulfonyl)-2-(4-ethoxymethyl-phenyl)-2,8-diaza-spiro[4.5]decan-1-one] | 40 nM |
| COC(=O)c1ccc(N2CCC3(CCN(S(=O)(=O)c4ccccc4Cl)CC3)C2=O)cc1 [Example 150, 8 4-[8-(2-Chloro-benzenesulfonyl)-1-oxo-2,8-diaza-spiro[4.5]dec-2-yl]-benzoic acid methyl ester] | 40 nM |
